Results published in article doi:10.1101/125930v1 (bioRxiv, 2017).

System: purified E. coli protein synthesis system (PURE)
Experiment: Myc-peptide translation assay
Assay type: biochemical
Conditions: MALDI-TOF, assuming similar ionization properties

| Compound | consecutive incorporations (in the absence of EF-P) | consecutive incorporations (with 8 μM EF-P) |
| --- | --- | --- |
| N[C@H](Cc1ccc(O)cc1)C(=O)O [^DTyr, D-tyrosine] | ≤ 2 | ≤ 5 |
| N[C@@H](Cc1ccc(O)cc1)C(=O)O [^LTyr, L-tyrosine] | up to 3 | up to 7 |
